Laboratory results from patent US9808445B2, “Factor IXa inhibitors” (Merck Sharp & Dohme Corp., priority 2014, dated 2017).
Where a name gives a salt, the structure may show the parent alone.

molecular target: human factor IXa (Homo sapiens (Human), UniProt P00740); experiment: Determination of inhibitory activity against factor IXa (fluorogenic substrate SPECTROFLUOR FIXa); assay type: biochemical; conditions: Factor IXa enzyme assay human
Method: Inhibitory activity against factor IXa was tested using the substrate SPECTROFLUOR FIXa (american diagnostica inc.; 500 West Avenue, Stamford, Conn. 06902 USA; Pr. No. 299F) and human factor IXa (american diagnostica inc.; Pr. No. 449b). Test substances were dissolved in buffer A (50 mM α,α,α-tris (hydroxymethyl) methylamine (Tris), 100 mM NaCl, 5 mM CaCl2, 15% (v/v) ethylene glycol, pH 8.0) were mixed with factor IXa (0.1 μg/ml final concentration). The enzyme reaction was started by addition of SPECTROFLUOR FIXa (100 μM final concentration). After incubation for 60 minutes at room temperature, the reaction was stopped by the addition of 20% (v/v) acetic acid solution, and then the fluorescence value was measured (Excitation Wavelength: 355 nm, Emission Wavelength; 460 nm) in a microtiter plate reader (ARVO 1420 Multilabel Counter; PerkinElmer).
The IC50 was calculated from a dilution series of the test substance with the aid of the software, Symyx Assay Explorer (Symyx Technologies, Inc.).

human factor IXa, sequence (P00740 227-461): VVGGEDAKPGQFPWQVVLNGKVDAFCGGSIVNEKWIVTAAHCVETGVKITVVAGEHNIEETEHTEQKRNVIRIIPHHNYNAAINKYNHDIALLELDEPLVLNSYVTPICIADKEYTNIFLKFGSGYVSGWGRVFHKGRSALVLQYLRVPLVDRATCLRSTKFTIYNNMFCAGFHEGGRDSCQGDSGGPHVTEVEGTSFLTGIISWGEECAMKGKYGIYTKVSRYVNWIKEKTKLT
human factor IXa, sequence (P00740 47-191 partner): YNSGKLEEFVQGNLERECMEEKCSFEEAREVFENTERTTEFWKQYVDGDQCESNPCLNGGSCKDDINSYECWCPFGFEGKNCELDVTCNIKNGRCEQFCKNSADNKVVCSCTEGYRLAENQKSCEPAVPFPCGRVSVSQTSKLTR

Row | Structure (SMILES) | IC50 [nM]
1 | COc1ncc(-c2ccc(C(=O)N[C@@H]3[C@H]4CC[C@@H]3N(c3ncc(Cl)c5c(N)noc35)C4)c(Cl)c2)cn1 (relative stereo) [Example 10, N-((1S*,4S*,7R*)-2-(3-Amino-4-chloroisoxazolo[5,4-c]pyridin-7-yl)-2-azabicyclo[2.2.1]heptan-7-yl)-2-chloro-4-(2-methoxypyrimidin-5-yl)benzamide] | ≤ 100
2 | Cc1cc2c(N)noc2c(N2CC3CCC2C3NC(=O)c2ccc(-n3cnc(C)n3)cc2Cl)n1 (single isomer, unassigned) [Example 11.1, N-((1S*,4S*,7R*)-2-(3-Amino-5-methylisoxazolo[5,4-c]pyridin-7-yl)-2-azabicyclo[2.2.1]heptan-7-yl)-2-chloro-4-(3-methyl-1H-1,2,4-triazol-1-yl)benzamide] | 100 to 1000
3 | Cc1ncn(-c2ccc(C(=O)N[C@@H]3[C@H]4CC[C@@H]3N(c3cc(Cl)cc5c(N)noc35)C4)c(Cl)c2)n1 (relative stereo) [Example 4, N-((1S*,4S*,7R*)-2-(3-Amino-5-chlorobenzo[d]isoxazol-7-yl)-2-azabicyclo[2.2.1]heptan-7-yl)-2-chloro-4-(3-methyl-1H-1,2,4-triazol-1-yl)benzamide] | ≤ 100
4 | Nc1noc2c(N3CC4CCC3C4NC(=O)c3ccc(-n4cncn4)cc3Cl)ncc(Cl)c12 (single isomer, unassigned) [Example 8.1, N-((1S*,4S*,7R*)-2-(3-Amino-4-chloroisoxazolo[5,4-c]pyridin-7-yl)-2-azabicyclo[2.2.1]heptan-7-yl)-2-chloro-4-(1H-1,2,4-triazol-1-yl)benzamide] | ≤ 100

The next lines start with the values.

Row | IC50 [nM] | Structure (SMILES)
5 | ≤ 100 | Cc1cc2c(N)noc2c(N2C[C@@H]3CC[C@H]2[C@@H]3NC(=O)c2ccc(-c3cnc(=O)n(C)c3)cc2Cl)n1 (relative stereo) [Example 27, N-((1S*,4S*,7R*)-2-(3-Amino-5-methylisoxazolo[5,4-c]pyridin-7-yl)-2-azabicyclo[2.2.1]heptan-7-yl)-2-chloro-4-(1-methyl-2-oxo-1,2-dihydropyrimidin-5-yl)benzamide TFA salt]
6 | ≤ 100 | Nc1noc2c(N3C[C@@H]4CC[C@H]3[C@@H]4NC(=O)c3ccc(-c4ccnnc4)cc3Cl)ncc(Cl)c12 (relative stereo) [Example 12, N-((1S*,4S*,7R*)-2-(3-Amino-4-chloroisoxazolo[5,4-c]pyridin-7-yl)-2-azabicyclo[2.2.1]heptan-7-yl)-2-chloro-4-(pyridazin-4-yl)benzamide]
7 | ≤ 100 | Cn1ncn(-c2ccc(C(=O)N[C@@H]3[C@H]4CC[C@@H]3N(c3ncc(Cl)c5c(N)noc35)C4)c(Cl)c2)c1=O (relative stereo) [Example 28, N-((1S*,4S*,7R*)-2-(3-Amino-4-chloroisoxazolo[5,4-c]pyridin-7-yl)-2-azabicyclo[2.2.1]heptan-7-yl)-2-chloro-4-(1-methyl-5-oxo-1,5-dihydro-4H-1,2,4-triazol-4-yl)benzamide]
8 | ≤ 100 | Nc1noc2c(N3C[C@@H]4CC[C@H]3[C@@H]4NC(=O)c3ccc(-c4ccc(=O)n(C(F)F)c4)cc3Cl)ncc(Cl)c12 (relative stereo) [Example 19, N-((1S*,4S*,7R*)-2-(3-Amino-4-chloroisoxazolo[5,4-c]pyridin-7-yl)-2-azabicyclo[2.2.1]heptan-7-yl)-2-chloro-4-(1-(difluoromethyl)-6-oxo-1,6-dihydropyridin-3-yl)benzamide]
9 | ≤ 100 | Nc1noc2c(N3C[C@@H]4CC[C@H]3[C@@H]4NC(=O)c3ccc(-c4ccc5nncn5c4)cc3Cl)ncc(Cl)c12 (relative stereo) [Example 20, 4-([1,2,4]Triazolo[4,3-a]pyridin-6-yl)-N-((1S*,4S*,7R*)-2-(3-amino-4-chloroisoxazolo[5,4-c]pyridin-7-yl)-2-azabicyclo[2.2.1]heptan-7-yl)-2-chlorobenzamide]
